# According to patent US20010039286A1, “2-aryl indole derivatives and their use as therapeutic agents” (priority 2000, published 2001):
smiles,measurement,value
Cl.OC1(Cc2ccccc2)CCN(CCCc2c(-c3ccc(Cl)cc3)[nH]c3ccc(Cl)cc23)CC1,melting point,147 to 150 °C
